Where two headings read alike, the source gives them in different places.
Columns and labels:
healthy subjects = details: cited from earlier work
[1] = tested on: endothelial dysfunction (ED) models; details: preclinical ED models and HF patients; cited from earlier work
[2] = tested on: subjects with heart failure with reduced ejection fraction (HfrEF); details: initial dose 2.5 mg, titrated to 10 mg at two-week intervals; cited from earlier work
NT-proBNP = details: cited from earlier work
[3] = in vivo; cited from earlier work
[4] = tested on: post-infectious ME/CFS patients
[5] = tested on: ZSF1 rat model of type 2 diabetes mellitus (T2DM)-induced nephropathy; details: cited from earlier work
[6] = humans; cited from earlier work
[7] = preclinical species; cited from earlier work
patients with ADHF = details: intravenously administered; cited from earlier work
sGC = details: cited from earlier work
intraocular pressure = details: animal models; cited from earlier work
isolated sGC = details: cited from earlier work
platelet aggregation = details: via stimulation of cGMP synthesis; cited from earlier work
patient with ME/CFS = details: single patient, history of Giardia Lamblia infection, ME/CFS for 10 years; cited from earlier work
[8] = tested on: liver fibrosis in two rat models; details: cited from earlier work
[9] = in vivo; cited from earlier work; remark: listed apart in the source
[10] = Vericiguat Pool (2.5 mg, 2.5 to 5 mg, 2.5 to 10 mg groups)

SMILES: COC(=O)Nc1c(N)nc(-c2nn(Cc3ccccc3F)c3ncc(F)cc23)nc1N [Vericiguat]
- PK interaction profile (healthy subjects; estimated in in vitro studies, confirmed in healthy subjects): low
- Severity of most treatment-emergent adverse events (healthy subjects; human, in vivo): mild-to-moderate severity
- Tolerability in clinical studies (healthy subjects; human, in vivo): well-tolerated
- Vascular function [1]: restores vascular function
- Efficacy in terms of cardiovascular mortality and HF hospitalization [2]: superior to placebo
- Difference of Means vs Placebo - log scale, change in log transformed NT-proBNP from baseline to week 12 (NT-proBNP; 1.25 mg): 0.0151 log [pg/mL]
- Ratio of Geometric Means vs Placebo - Back Transformed, NT-proBNP baseline to week 12 (NT-proBNP; 1.25 mg): 1.015
- Reduction in NT-proBNP at 12 weeks compared to placebo (NT-proBNP; 2.5 mg titrated at two-week intervals to 10 mg, p=0.0483): greatest reduction
- Difference of Means vs Placebo - log scale, change in log transformed NT-proBNP from baseline to week 12 (NT-proBNP; 2.5 mg): −0.0396 log [pg/mL]
- Ratio of Geometric Means vs Placebo - Back Transformed, NT-proBNP baseline to week 12 (NT-proBNP; 2.5 mg): 0.961
- Difference of Means vs Placebo - log scale, change in log transformed NT-proBNP from baseline to week 12 (NT-proBNP; 2.5 to 5 mg): −0.0731 log [pg/mL]
- Ratio of Geometric Means vs Placebo - Back Transformed, NT-proBNP baseline to week 12 (NT-proBNP; 2.5 to 5 mg): 0.930
- Difference of Means vs Placebo - log scale, change in log transformed NT-proBNP from baseline to week 12 (NT-proBNP; 2.5 to 10 mg): −0.2494 log [pg/mL]
- Ratio of Geometric Means vs Placebo - Back Transformed, NT-proBNP baseline to week 12 (NT-proBNP; 2.5 to 10 mg): 0.779
- Difference of Means vs Placebo - log scale, change in log transformed NT-proBNP from baseline to week 12 (NT-proBNP; [10]): −0.1220 log [pg/mL]
- Ratio of Geometric Means vs Placebo - Back Transformed, NT-proBNP baseline to week 12 (NT-proBNP; [10]): 0.885
- Secondary analysis: reduction of NT-proBNP at 12 weeks (NT-proBNP; across vericiguat doses): dose-response relationship
- Primary efficacy endpoint, change from baseline in log-transformed NT-proBNP vs placebo (NT-proBNP; pooled vericiguat group, 12 weeks): not significantly different
- Risk of anemia as side effect [3]: 1.9%
- Cognitive function ([4]; 1st patient): improved
- Sensitivity to light and noise ([4]; 1st patient): less sensitivity to light and noise
- Fatigue ([4]; 1st patient (ME/CFS triggered by COVID), 5 mg): improved
- Activity without getting PEM ([4]; 1st patient, 5 mg): much more activity was possible without getting PEM
- Quality of life, according to the patient ([4]; 2nd patient): significantly improved
- Effect of treatment (mainly cognitive) ([4]; 2nd patient (postinfectious ME/CFS, Bell of 20), 2.5 mg): only a minor positive effect
- Cognitive ability ([4]; 2nd patient, 5 mg, over a period of a few weeks): increase in cognitive ability
- Feeling of being sick ([4]; 2nd patient, compared to prior to treatment): reduced
- Headaches ([4]; 2nd patient, before medication about 3 days a week): almost completely disappeared
- Ability for cognitive work without triggering PEM ([4]; 2nd patient, increased from 1 h): more than 2 hours
- Headaches ([4]; 3rd patient): disappeared
- Muscle fasciculation ([4]; 3rd patient): decreased
- Sensitivity to noise ([4]; 3rd patient): improved
- Fatigue ([4]; 3rd patient (ME/CFS triggered by COVID), 2 weeks of 5 mg): improved
- Ability to work ([4]; 3rd patient, increased from 1): 2 to 3 h
- Drop in blood pressure ([4]; human, in vivo): no significant drop in blood pressure
- Effect on blood pressure ([4]; human, in vivo): almost no effect on blood pressure
- Tolerability ([4]; human, in vivo): very good

SMILES: Cc1ccc(OCc2ccc(C(=O)N3CCCCC3)cc2C)c(-c2csc(C3CC4CCC(C3)C4C(=O)O)n2)c1 (stereo not shown) [BI 703704]
- In vivo activity [5]: displaying in vivo activity

SMILES: OC(CNc1nc(-c2cc(-c3ccon3)n(Cc3ccccc3F)n2)ncc1F)(C(F)(F)F)C(F)(F)F [Praliciguat]
- Pharmacokinetic half-life [6]: consistent with QD dosing
- Clearance route [7]: mainly hepatic clearance
- Half-life [7]: long half-life
- Tissue distribution [7]: extensive tissue distribution

SMILES: O=C(O)CCCCN(CCc1ccccc1OCc1ccc(CCc2ccccc2)cc1)Cc1ccc(C(=O)O)cc1 [Cinaciguat]
- Hemodynamic effect (patients with ADHF): potent unloading of the heart with arterial vasodilation

SMILES: [N]=O [NO, nitric oxide]
- Increase of sGC activity (sGC): about 200 fold

SMILES: Cc1cc(C2CCN(C(=O)C3CC3)CC2)ccc1NC1CCc2cccc(-c3cccc(-n4ncc(C(=O)O)c4C)n3)c21 (stereo not shown) [MGV354]
- Intraocular pressure (intraocular pressure): significantly lowered intraocular pressure

SMILES: OCc1ccc(-c2nn(Cc3ccccc3)c3ccccc23)o1 [YC-1]
- Effect on sGC when combined with NO-releasing compounds (isolated sGC): strong synergistic effect
- sGC stimulation after oxidation or removal of the prosthetic heme moiety (isolated sGC): loss of stimulation
- Platelet aggregation (platelet aggregation): inhibiting platelet aggregation

SMILES: COC(=O)N(C)c1c(N)nc(-c2nn(Cc3ccccc3F)c3ncccc23)nc1N [Riociguat]
- Symptoms of ME/CFS (patient with ME/CFS): some improvement in symptoms
- Risk of anemia as side effect [3]: 7.8%

SMILES: O=C(O)CCCCN(CCc1cc(F)ccc1OCc1ccc(-c2ccc(C(F)(F)F)cc2)cc1)Cc1ccc(C(=O)O)cc1 [BAY 60-2770, 4-({(4-carboxy-butyl)[2-(5-fluoro-2-{[4′-(trifluoromethyl)biphenyl-4-yl]methoxy}phenyl)ethyl]amino}methyl)benzoic acid]
- Liver fibrosis [8]: attenuates liver fibrosis

SMILES: Fc1ccccc1Cc1nc(-c2nc(C(F)(F)F)n[nH]2)cn2ccnc12 [CY6463]
- Crossing of the blood-brain barrier [9]: readily crosses the blood-brain barrier

— patent US20250387391A1, “A SOLUBLE GUANYLAT CYCLASE ACTIVATOR FOR TREATING CHRONIC VASCULAR DYSFUNCTION” (Charité - Universitätsmedizin Berlin, priority 2022, published 2025)
